According to patent US8772304B2, “Benzimidazole inhibitors of leukotriene production” (Boehringer Ingelheim International GmbH, priority 2010, dated 2014):
Each block holds one compound with its values, some of them ahead of it.

Assays:
proteinuria = conditions: clinical trial, human glomerulonephritis; cited from earlier work
[1] = test system: biomarkers for myocardial infarction risk; conditions: clinical trial; cited from earlier work
atherosclerotic plaque [2] = conditions: infusion, ApoE−/−xCD4dnTβRII mice, treated for four weeks; cited from earlier work
atherosclerotic plaque [3] = conditions: oral dosing, apoE/LDL-R double knockout mice, high-fat diet from 2 to 6 months of age; cited from earlier work
[4] = target: recombinant human FLAP protein (Homo sapiens (Human), UniProt P20292); experiment: FLAP binding assay (Scintillation Proximity Assay, displacement of iodinated FLAP inhibitor); conditions: displacement of [125I]L-691,831; membranes of sf9 cells expressing recombinant human FLAP; read-out: hFLAP binding IC50
Chain of recombinant human FLAP protein (P20292 whole entry): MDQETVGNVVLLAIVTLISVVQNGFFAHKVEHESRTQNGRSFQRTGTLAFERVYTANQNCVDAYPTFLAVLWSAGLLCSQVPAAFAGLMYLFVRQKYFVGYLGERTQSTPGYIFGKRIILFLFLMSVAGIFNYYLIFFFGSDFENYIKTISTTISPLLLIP
Experimental: Compounds are assessed for the ability to bind to FLAP in a binding assay that measures compound-specific displacement of an iodinated (^125I) FLAP inhibitor via a Scintillation Proximity Assay format (adapted from S. Charleson et al., Mol. Pharmacol., 1992, 41, 873-879).
Cell pellets produced from sf9 insect cells expressing recombinant human FLAP protein are resuspended in buffer A [15 mM Tris-HCl (pH 7.5), 2 mM MgCl2, 0.3 mM EDTA, 1 mM PMSF]. The cells are lysed with a Dounce homogenizer and the material is centrifuged at 10,000×g for 10 minutes. The supernatant is then collected and centrifuged at 100,000×g for 60 minutes. To prepare membrane protein for an assay, an aliquot of the 100,000×g pellet is resuspended in 1 ml of buffer A, Dounce homogenized, and finally subjected to polytron mixing (30 seconds). Membrane protein (25 μl, 5 μg) is mixed with WGA SPA beads (Amersham) and stirred for 1 h. […] (final concentrations: beads, 200 μg/well; protein, 5 μg/well; [^125I] probe, 0 08 nM/well (17 nCi/well). The plates are shaken for 2 h before reading on a Microbeta plate reader. Non-specific binding is determined by the addition of 10 μM cold L-691,831 compound.

[5] = test system: synthesis of LTB4 in human whole blood; experiment: human whole blood LTB4 production inhibition assay; assay type: cell-based; conditions: heparinized human whole blood, calcimycin 20 μM stimulation, plasma LTB4; read-out: hWB IC50
Experimental: Compounds are additionally tested in a human whole blood assay to determine their ability to inhibit the synthesis of LTB4 in a cellular system. Compounds are combined with heparinized human whole blood and incubated for 15 minutes at 37° C. Calcimycin (20 μM final, prepared in phosphate-buffered saline, pH 7.4) is then added and the mixture is incubated for another 30 minutes at 37° C. The samples are centrifuged for 5 min at low speed (1500×g) and the plasma layer is removed. Plasma LTB4 concentrations are then measured using an antibody-based homogenous time-resolved fluorescence method (CisBio, Bedford, Mass.).

SMILES: CC(C)(C)Sc1c(CC(C)(C)C(=O)O)n(Cc2ccc(Cl)cc2)c2ccc(OCc3ccc4ccccc4n3)cc12 [MK-591]
effect on proteinuria (proteinuria): reduce proteinuria

SMILES: O=C(O)[C@@H](c1ccc(OCc2ccc3ccccc3n2)cc1)C1CCCC1 [DG-031]
effect on biomarkers for myocardial infarction risk [1]: dose-dependent suppression of several biomarkers

SMILES: CC(C)c1ccc2c(c1)c(SC(C)(C)C)c(CC(C)(C)C(=O)O)n2Cc1ccc(Cl)cc1 [MK-886]
decrease in plaque area in the aortic root (atherosclerotic plaque [2]): ~40%
decrease in plaque coverage in the aorta (atherosclerotic plaque [3]): 56%
decrease in plaque coverage in the aortic root (atherosclerotic plaque [3]): 43%

IC50 [4]: 12 nM
IC50 [5]: 278 nM
SMILES: Cc1ncn(-c2ncccc2-c2nc3cc(-c4cnc(N)nc4)ccc3n2C(C)(C)C)n1 [Example 25, 5-{1-tert-Butyl-2-[2-(3-methyl-1,2,4-triazol-1-yl)-pyridin-3-yl]-1H-benzimidazol-5-yl}-pyrimidin-2-ylamine]

IC50 [4]: 110 nM
IC50 [5]: 387 nM
SMILES: COC(=O)c1ccc(C#N)nc1-c1nc2cc(-c3cnc(N)nc3)ccc2n1C(C)(C)C [Example 9, 2-[5-(2-Amino-pyrimidin-5-yl)-1-tert-butyl-1H-benzimidazol-2-yl]-6-cyano-nicotinic acid methyl ester]
